What all share (assay): NCI tumour cell line growth inhibition, 48 h
The subject of experiment [1] is COLO 205 colon.
Experiment [2] relates to HCT-116 colon.
Experiment [3] has as its system RXF 393 renal.
The test system of experiment [4] is EKVX NSCLC.
The test system of experiment [5] is SNB-19 CNS.
Experiment [6] relates to 786-0 renal.
Experiment [7] has as its system SF-539 CNS.
Experiment [8] concerns A549 NSCLC.
The test system of experiment [9] is MALME-3M melanoma.
Experiment [10] relates to SK-MEL-2 melanoma.

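A five-concentration, 48-hour dose response in 96-well plates underlies each endpoint, interpolated linearly between surrounding concentrations. Abbreviation: GI50, concentration required for 50% inhibition of growth. TGI: concentration producing complete growth inhibition.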

With `COc1cc(/C=C/C(=O)C(=Cc2ccc(F)c(F)c2)C(=O)/C=C/c2ccc(O)c(OC)c2)ccc1O`, the GI50 was 2.26 µM in [1]; 1.79 µM in experiment [2]; 1.74 µM in [3]; 4.61 µM in experiment [4]; 3.54 µM in [5]; 2.32 µM in [6]. For the same molecule, the GI50 in experiment [7] is 3.26 µM; in [8], 3.34 µM; in experiment [9], 5.61 µM; in [10], 1.81 µM. The TGI in experiment [1] was 4.74 µM; in experiment [2], 4.01 µM; in [3], 3.2 µM; in experiment [4], 18.3 µM; in experiment [5] it was 15.9 µM; in experiment [6], 5.5 µM. Further, the TGI in experiment [7] was determined as 13.6 µM; in experiment [8] it was 16.9 µM; in [9], 37.3 µM; in [10], 3.58 µM.
Take `O=C1C=C2S[C@H]3C[C@]2(C=C1Br)c1c(c(O)c2c4c1=NCCC=4C=N2)N3`: the TGI in experiment [1] is 0.21 µM; in experiment [2], 0.342 µM; in experiment [3], 0.947 µM; in experiment [4] it was 3.19 µM; in experiment [5], 25.7 µM; in [6] it was 2.14 µM. Further, the TGI in experiment [7] was 3.03 µM; in experiment [8], 6.85 µM; in [9], 0.261 µM; in [10], 1.39 µM.
Consider `O=C(CCc1nnc2s/c(=C\c3ccccc3)c(=O)n12)Nc1cc(Cl)ccc1Cl`, for which the TGI is above 100 µM in experiment [1]; 66.9 µM in experiment [2]; above 100 µM in experiment [3]; above 100 µM in experiment [4]; above 100 µM in experiment [5]; above 100 µM in experiment [6]. The TGI in experiment [7], in [8], in experiment [9] and in experiment [10] was above 100 µM in each case.
Take `C=CCN1C(=O)/C(=c2\sc3n(c2=O)C2C(NN=3)N(CC)C(=O)N2CC)c2ccccc21` (stereo unspecified): the GI50 in [1] is 0.549 µM; in experiment [2], 0.403 µM; in experiment [3] it was 0.328 µM; in experiment [4], 1.39 µM; in experiment [5], 0.973 µM; in experiment [6], 0.708 µM. Further, the GI50 in experiment [7] was 0.346 µM; in experiment [8], 1.21 µM; in [9], 1.28 µM; in experiment [10], 2.17 µM. Further, the TGI was above 20.4 µM in experiment [1]; above 100 µM in experiment [2]; 1.94 µM in experiment [3]; above 100 µM in experiment [4]; above 74.9 µM in [5]; 14.9 µM in [6]. Further, the TGI in experiment [7] is 2.87 µM; in [8], above 100 µM; in experiment [9], above 100 µM; in experiment [10], above 38.7 µM.
With `COC(=O)CCC(NC(=S)N/N=C(\C)c1ccccn1)C(=O)OC` (stereo unspecified), the TGI in [1], in [2], in experiment [3], in experiment [4], in experiment [5] and in [6] was above 100 µM throughout. Further, the TGI in experiment [7], in experiment [8], in [9] and in [10] was above 100 µM each time.
As to `COc1cccc(Nc2nc(NNC(=O)Cc3ccccc3)nc(NNC(=O)c3ccncc3)n2)c1`, the GI50 in experiment [1], in [4], in [6], in experiment [7], in experiment [8] and in experiment [9] was above 100 µM throughout. Also, the TGI in [1], in experiment [2], in [3], in experiment [4], in [5] and in [6] was above 100 µM throughout. The TGI in experiment [7], in experiment [8], in experiment [9] and in experiment [10] was above 100 µM throughout.
Consider `CC(C)=CC/C=C(/C)[C@H]1CC[C@]2(C)[C@@H]1CC[C@@H]1[C@@]3(C)CCC(=O)NC(C)(C)[C@@H]3CC[C@]12C`, for which the GI50 was 25.3 µM in experiment [1]; 15 µM in experiment [2]; 16.8 µM in experiment [3]; 27.7 µM in [4]; 25 µM in experiment [5]; 19.8 µM in experiment [6]. Besides, the GI50 was 16.5 µM in experiment [7], 30.2 µM in experiment [8], 16 µM in experiment [9] and 27.6 µM in experiment [10]. The TGI in [1] stood at 64.7 µM; in [2], 34.5 µM; in experiment [3], 32.4 µM; in experiment [4] it was 84 µM; in experiment [5], 72.4 µM; in experiment [6] it was 37.5 µM. For the same molecule, the TGI in experiment [7] was 30.5 µM; in [8], above 100 µM; in experiment [9] it was 30.8 µM; in experiment [10], 82.8 µM.
Turning to `COC(=O)C(C(=O)C(=O)Nc1cccc(O)c1)c1nc2ccc(Cl)cc2[nH]c1=O` (stereo unspecified), the TGI in experiment [1], in experiment [2], in experiment [3], in [4], in [5] and in [6] was above 100 µM throughout. In addition, the TGI in experiment [7], in experiment [8], in experiment [9] and in [10] was above 100 µM in each case.
`OC(c1ccccc1)(c1ccccc1)c1ccccn1`: the TGI in [1], in experiment [2], in experiment [3], in [4], in [5] and in experiment [6] was above 100 µM throughout. Further, the TGI in [7], in [8], in [9] and in experiment [10] was above 100 µM each time.
Turning to `CCCc1cc(=O)oc2c(C(=O)CC(C)C)c(O)c(CC=C(C)C)c(O)c12`, the GI50 in [1] was 10.6 µM; in experiment [2], 8.59 µM; in experiment [3], 13.7 µM; in experiment [4], 9.22 µM; in [5] it was 14.5 µM; in experiment [6] it was 10.5 µM. In addition, the GI50 in experiment [7] is 9.8 µM; in [8], 11.4 µM; in experiment [9], 9.89 µM; in experiment [10] it was 9.71 µM. Moreover, the TGI is 21.5 µM in experiment [1]; above 50 µM in experiment [2]; 45.2 µM in [3]; above 50 µM in [4]; above 50 µM in experiment [5]; 46.2 µM in experiment [6]. The TGI in experiment [7] was 44.2 µM; in experiment [8], above 50 µM; in [9], 32.4 µM; in experiment [10] it was 49 µM.
For the molecule `O=C(NCCCN1CCN(CCCNC(=O)c2cnc3ccccc3n2)CC1)c1cnc2ccccc2n1`, the TGI in experiment [1], in [2], in [3], in [4], in experiment [5] and in [6] was above 100 µM each time. In addition, the TGI in [7], in [8], in [9] and in experiment [10] was above 100 µM each time.
In the case of `O=C(N[C@H](c1ccc(Cl)c(Cl)c1)C1CNC1)c1ccc2cnccc2c1`, the GI50 in experiment [1] is 2.96 µM; in experiment [2], 3.23 µM; in [3], 0.68 µM; in experiment [4], 3.15 µM; in experiment [5] it was 8.9 µM; in experiment [6], 1.78 µM. Further, the GI50 is 1.71 µM in experiment [7], 3.29 µM in experiment [8], 3.06 µM in experiment [9] and 10.2 µM in experiment [10]. For the same molecule, the TGI worked out at 11.5 µM in experiment [1]; 13.2 µM in [2]; 3.74 µM in [3]; 16.4 µM in experiment [4]; 21.5 µM in experiment [5]; 11.5 µM in experiment [6]. Moreover, the TGI was 11.3 µM in experiment [7], 16.5 µM in experiment [8], 14.6 µM in experiment [9] and 22.4 µM in experiment [10].
In the case of `CCOP(=O)(CCP(=O)(OCC)OCC)OCC.C[CH2][Sn]([Cl])([Cl])[CH2]C`, the GI50 was 30.4 µM in experiment [1]; above 67.3 µM in experiment [2]; 15.3 µM in experiment [3]; above 100 µM in experiment [4]; 31.2 µM in experiment [5]; 21.7 µM in [6]. Besides, the GI50 in [7] was 34.9 µM; in [8] it was above 100 µM; in experiment [9] it was 15.3 µM; in experiment [10], 18.9 µM. The TGI was 50.9 µM in experiment [1]; above 100 µM in [2]; 30.1 µM in experiment [3]; above 100 µM in experiment [4]; 49.9 µM in [5]; 50.2 µM in [6]. Further, the TGI is 52.1 µM in [7], above 100 µM in [8], 30.6 µM in experiment [9] and 43.1 µM in experiment [10].
`C[N+](C)(C)CCOP(=O)(O)OP(=O)([O-])OCC1CCC(n2ccc(N)nc2=O)O1` (stereo unspecified): the TGI in [1], in [2], in [3], in experiment [4], in experiment [5] and in experiment [6] was above 100 µM throughout. Besides, the TGI in experiment [7], in experiment [8], in experiment [9] and in [10] was above 100 µM throughout.
As to `Clc1ccc(-c2nc3c(-c4ccc(Cl)cc4)nc(-c4ccccc4)cn3c2-c2ccc(Cl)cc2)cc1`, the GI50 in experiment [1] was above 50 µM; in experiment [2] it was above 50 µM; in experiment [3], 11.1 µM; in experiment [4], above 50 µM; in [5], above 50 µM; in [6], 46.5 µM. For the same molecule, the GI50 in experiment [7] is 21 µM; in [8], above 50 µM; in [9], above 50 µM; in experiment [10] it was 26 µM. Also, the TGI is above 50 µM in experiment [1]; above 50 µM in [2]; 29 µM in experiment [3]; above 50 µM in experiment [4]; above 50 µM in experiment [5]; above 50 µM in experiment [6]. For the same molecule, the TGI in experiment [7], in experiment [8], in experiment [9] and in experiment [10] was above 50 µM each time.
On to `CCCCCCN(CCCCCC)CCCNc1nccc2ccccc12`, for which the GI50 is 1.48 µM in [1]; 0.832 µM in experiment [2]; 1.82 µM in experiment [3]; 2.65 µM in experiment [4]; 2.09 µM in experiment [5]; 1.81 µM in [6]. Further, the GI50 in experiment [7] is 1.94 µM; in [8] it was 2.64 µM; in experiment [9] it was 1.94 µM; in experiment [10], 1.8 µM. For the same molecule, the TGI in experiment [1] worked out at 3.07 µM; in [2], 2.2 µM; in experiment [3] it was 5.3 µM; in experiment [4], 11.8 µM; in experiment [5] it was 6.01 µM; in [6], 3.98 µM. The TGI in [7] was found to be 3.59 µM; in experiment [8], 7.98 µM; in [9], 3.91 µM; in [10], 3.41 µM.
Take `CCCCCCCCCc1cc(O)c(O)cc1CCCCCCCCC`: the TGI in [1], in [2], in experiment [3], in experiment [4], in experiment [5] and in experiment [6] was above 10 µM in each case. For the same molecule, the TGI in [7], in experiment [8], in [9] and in experiment [10] was above 10 µM each time.
Take `Nc1nnc2nc(CC(=O)/C=C/c3ccccc3)c(=O)[nH]n12`: the TGI in experiment [1], in [2], in experiment [3], in experiment [4], in experiment [5] and in experiment [6] was above 100 µM each time. For the same molecule, the TGI in experiment [7], in experiment [8], in experiment [9] and in [10] was above 100 µM each time.

The values above are taken from PubChem BioAssay (NCI).
